# Read-outs that look alike come from different tables or passages of the source.
# Key:
# [1] = molecular target: T1, human serotonin transporters (Homo sapiens, UniProt P31645); experiment: Serotonin Transporter Binding Assay ([3H]-citalopram displacement, HEK-hSERT cell membranes)
# T1 construct: expressed in transfected cells
# Method: HEK-293 cells that stably express human serotonin transporters (HEK-hSERT cells) were grown at 37° C. in 5% CO2 as a monolayer in medium consisting of EMEM supplemented with 10% fetal bovine serum and G418 sulfate (500 μg/mL). To prepare membranes for radioligand binding experiments, cells were rinsed twice with phosphate-buffered saline (138 mM NaCl, 4.1 mM KCl, 5.1 mM Na2PO4, 1.5 mM […], 11.1 mM glucose, pH 7.4). Cells were transferred from plates to polypropylene tubes (16×100 mm), centrifuged at 1,200×g for 5 min and were frozen at −80° C. until assay. Following centrifugation, pellets were resuspended by homogenization in buffer consisting of 50 mM Tris (pH 7.7 at 25° C.), 120 mM NaCl and 5 mM KCl and then centrifuged at 32,000×g for 10 min. Following centrifugation, supernatants were discarded and pellets were resuspended in buffer consisting of 50 mM Tris (pH 7.4 at 25° C.), 150 mM NaCl and 5 mM KCl. Membrane homogenates (200 μl/plate) were incubated with 1 nM [^3H]-citalopram (specific activity=85 Ci/mMol) and increasing concentrations of test compounds for 1 hr at 25° C. in a total volume of 250 μl. The assay buffer consisted of 50 mM Tris (pH 7.4 at 25° C.), 120 mM NaCl and 5 mM KCl (pH 7.4 with conc. HCl). Plates were incubated for 1 hr at 25° C., then filtered through 0.5% PEI treated Whatman GF/B filters using a Brandel cell harvester. Filters were washed three times with 3 mL of ice-cold tris wash buffer. Non-specific binding was defined with 10 μM fluoxetine. Amount of radioligand bound in the presence and absence of competitor was analyzed by plotting (−)log drug concentration versus the amount of radioligand specifically bound. The midpoint of the displacement curve (IC50, nM), signifies the potency. Ki values were calculated using the method of Cheng and Prusoff (1973).
# [2] = molecular target: T2, human norepinephrine transporters (Homo sapiens, UniProt P23975); experiment: Norepinephrine Transporter Binding Assay ([3H]-nisoxetine displacement, hNET cell membranes); details: 2.7 nM [3H]-nisoxetine, 1 hr at 4° C., read-out: NE Reuptake (binding Ki)
# T2 construct: host or cells: MDCK cells (also 'HEK-hNET cells'), membrane homogenates
# T2 sequence (P23975 whole entry): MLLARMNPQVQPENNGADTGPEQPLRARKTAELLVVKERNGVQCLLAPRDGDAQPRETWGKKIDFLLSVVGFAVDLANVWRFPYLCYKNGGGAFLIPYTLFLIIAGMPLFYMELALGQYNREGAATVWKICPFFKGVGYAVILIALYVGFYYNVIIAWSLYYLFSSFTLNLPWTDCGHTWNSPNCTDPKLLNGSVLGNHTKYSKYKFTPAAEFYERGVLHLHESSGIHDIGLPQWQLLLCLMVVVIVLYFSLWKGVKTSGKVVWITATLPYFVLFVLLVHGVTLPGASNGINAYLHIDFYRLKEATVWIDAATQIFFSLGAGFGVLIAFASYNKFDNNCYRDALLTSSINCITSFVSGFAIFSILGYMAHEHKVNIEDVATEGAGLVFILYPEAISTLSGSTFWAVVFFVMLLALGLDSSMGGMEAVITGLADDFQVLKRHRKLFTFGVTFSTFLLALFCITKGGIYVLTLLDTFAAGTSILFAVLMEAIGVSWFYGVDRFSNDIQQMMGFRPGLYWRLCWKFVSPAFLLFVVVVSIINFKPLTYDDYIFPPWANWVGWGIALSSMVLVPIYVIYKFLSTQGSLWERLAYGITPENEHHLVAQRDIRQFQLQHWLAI
# Method: MDCK cells that stably express human norepinephrine transporters (HEK-hNET cells) were supplied by Receptor Biology, Inc. Pellets were resuspended by homogenization in buffer consisting of 50 mM Tris (pH 7.4 at 25° C.), 120 mM NaCl and 5 mM KCl. Membrane homogenates (200 μl/well, 8 ug protein) were incubated with 2.7 nM [^3H]-nisoxetine (specific activity=80 Ci/mMol) and increasing concentrations of test compounds for 1 hr at 4° C. in a total volume of 250 μl. The assay buffer consisted of 50 mM Tris (pH 7.4 at 25° C.), 120 mM NaCl and 5 mM KCl (pH 7.4 with conc. HCl). Plates were incubated for 1 hr at 4° C., then filtered through 0.5% PEI treated Whatman GF/B filters using a Brandel cell harvester. Filters were washed three times with 3 mL of ice-cold tris wash buffer. Non-specific binding was defined with 10 μM desipramine. Amount of radioligand bound in the presence and absence of competitor was analyzed by plotting (−)log drug concentration versus the amount of radioligand specifically bound. The midpoint of the displacement curve (IC50, nM), signifies the potency. Ki values were calculated using the method of Cheng and Prusoff (1973).
# [3] = HEK-hSERT membranes, 1 nM [3H]-citalopram, 1 hr at 25° C., read-out: SERT (binding Ki)
# T1 sequence (P31645 whole entry): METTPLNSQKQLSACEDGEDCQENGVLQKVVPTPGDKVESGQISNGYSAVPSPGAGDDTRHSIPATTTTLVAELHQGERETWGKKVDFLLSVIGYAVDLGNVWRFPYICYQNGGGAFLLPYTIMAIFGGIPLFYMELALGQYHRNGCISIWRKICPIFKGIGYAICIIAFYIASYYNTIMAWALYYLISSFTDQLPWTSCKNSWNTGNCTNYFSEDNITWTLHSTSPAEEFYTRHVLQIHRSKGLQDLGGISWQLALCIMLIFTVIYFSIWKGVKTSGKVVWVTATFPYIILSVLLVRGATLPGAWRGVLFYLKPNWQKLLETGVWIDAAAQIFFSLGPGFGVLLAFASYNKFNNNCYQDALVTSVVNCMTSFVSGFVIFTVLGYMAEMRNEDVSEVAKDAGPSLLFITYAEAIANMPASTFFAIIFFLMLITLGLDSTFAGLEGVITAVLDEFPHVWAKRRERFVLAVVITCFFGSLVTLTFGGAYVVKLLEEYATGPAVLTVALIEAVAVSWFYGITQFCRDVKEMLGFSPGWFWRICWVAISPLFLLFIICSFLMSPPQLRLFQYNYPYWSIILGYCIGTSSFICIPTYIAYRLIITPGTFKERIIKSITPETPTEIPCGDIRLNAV
Ki [2] [nM],Structure (SMILES),"Ki [1, 3] [nM]",Ki [1] [nM]
100 to 1000,"Cn1cc(C2CCC(NCCc3ccccc3)C2)c2cc(C#N)ccc21 (stereo not shown) [Compound 20, 1-Methyl-3-(3-phenethylamino-cyclopentyl)-1H-indole-5-carbonitrile]",1 to 10,
,"N#Cc1ccc2[nH]cc([C@H]3CCC(N)C3)c2c1 (stereo partly drawn) [Compound 60, (1S)-3-(3-Amino-cyclopentyl)-1H-indole-05-carbonitrile]",10 to 100,
> 1000,"N#Cc1ccc2[nH]cc(C3CCC(N4Cc5ccccc5C4)C3)c2c1 (stereo not shown) [Compound 7, 3-[3-(1,3-Dihydro-isoindol-2-yl)-cyclopentyl]-1H-indole-5-carbonitrile]",1 to 10,
,"CN(C)C1CCC(c2c[nH]c3c(F)cccc23)C1 (stereo not shown) [Compound 45, 3-(7-Fluoro-1H-indol-3-yl)-cyclopentyl-dimethyl-amine]",1 to 10,
,"CN(C)C1CCC(c2c[nH]c3cc(Cl)ccc23)C1 (stereo not shown) [Compound 43, 3-(6-Chloro-1H-indol-3-yl)-cyclopentyl-dimethyl-amine]",1 to 10,
> 1000,"CCn1cc(C2CCC(N(C)C)C2)c2cc(C#N)ccc21 (stereo not shown) [Compound 32, 3-(3-Dimethylamino-cyclopentyl)-1-ethyl-1H-indole-5-carbonitrile]",< 1,
,"CN(C)C1CCC(c2c[nH]c3c(Br)cccc23)C1 (stereo not shown) [Compound 47, 3-(7-Bromo-1H-indol-3-yl)-cyclopentyl-dimethyl-amine]",1 to 10,
100 to 1000,"N#Cc1ccc2[nH]cc(C3CCC(N4CCc5ccccc5C4)C3)c2c1 (stereo not shown) [Compound 8, 3-[3-(3,4-Dihydro-1H-isoquinolin-2-yl)-cyclopentyl]-1H-indole-5-carbonitrile]",1 to 10,
,"CN(C)C1CCC(c2c[nH]c3cccc(Br)c23)C1 (stereo not shown) [Compound 38, 3-(4-Bromo-1H-indol-3-yl)-cyclopentyl-dimethyl-amine]",1 to 10,
100 to 1000,"N#Cc1ccc2[nH]cc(C3CCC(NCc4ccccc4)C3)c2c1 (stereo not shown) [Compound 13, 3-(3-Benzylamino-cyclopentyl)-1H-indole-5-carbonitrile]",1 to 10,
> 1000,"CCCN(CCC)C1CCC(c2c[nH]c3ccc(C#N)cc23)C1 (stereo not shown) [Compound 15, 3-(3-Dipropylamino-cyclopentyl)-1H-indole-5-carbonitrile]",1 to 10,
,"CN(C)C1CCC(c2c[nH]c3cc(Br)ccc23)C1 (stereo not shown) [Compound 44, 3-(6-Bromo-1H-indol-3-yl)-cyclopentyl-dimethyl-amine]",1 to 10,
,"N#Cc1ccc2[nH]cc([C@H]3CCC(NC4CC[C@H](c5c[nH]c6ccc(C#N)cc56)C4)C3)c2c1 (stereo partly drawn) [Compound 61, (3S,3′S)-bis-(3-(5-cyano-1H-indol-3-yl)cyclopentyl)amine]",1 to 10,
> 1000,"CN(Cc1ccccc1)C1CCC(c2cn(C)c3ccc(C#N)cc23)C1 (stereo not shown) [Compound 27, 3-[3-(Benzyl-methyl-amino)-cyclopentyl]-1-methyl-1H-indole-5-carbonitrile]",< 1,
> 1000,"CCCN(CCC)C1CCC(c2cn(C)c3ccc(C#N)cc23)C1 (stereo not shown) [Compound 30, 3-(3-Dipropylamino-cyclopentyl)-1-methyl-1H-indole-5-carbonitrile]",< 1,
> 1000,"CCn1cc([C@@H]2CC[C@H](N(C)C)C2)c2cc(C#N)ccc21 [Compound 58, (1R,3S)-3-(3-Dimethylamino-cyclopentyl)-1-ethyl-1H-indole-5-carbonitrile]",< 1,
,"CN(C)C1CCC(c2c[nH]c3ccc(Br)cc23)C1 (stereo not shown) [Compound 40, 3-(5-Bromo-1H-indol-3-yl)-cyclopentyl-dimethyl-amine]",1 to 10,
> 1000,"CCn1cc([C@H]2CC[C@H](N(C)C)C2)c2cc(C#N)ccc21 [Compound 57, (1S,3S)-3-(3-Dimethylamino-cyclopentyl)-1-ethyl-1H-indole-5-carbonitrile]",1 to 10,
100 to 1000,"Cn1cc(C2CCC(NCc3ccccc3)C2)c2cc(C#N)ccc21 (stereo not shown) [Compound 19, 3-(3-Benzylamino-cyclopentyl)-1-methyl-1H-indole-5-carbonitrile]",1 to 10,
100 to 1000,"CN(CCc1ccccc1)C1CCC(c2cn(C)c3ccc(C#N)cc23)C1 (stereo not shown) [Compound 28, 1-Methyl-3-[3-(methyl-phenethyl-amino)-cyclopentyl]-1H-indole-5-carbonitrile]",1 to 10,
> 1000,"CCn1cc([C@H]2CC[C@@H](N(C)C)C2)c2cc(C#N)ccc21 [Compound 56, (1S,3R)-3-(3-Dimethylamino-cyclopentyl)-1-ethyl-1H-indole-5-carbonitrile]",< 1,
,"CN(C)C1CCC(c2c[nH]c3c(Cl)cccc23)C1 (stereo not shown) [Compound 46, 3-(7-Chloro-1H-indol-3-yl)-cyclopentyl-dimethyl-amine]",< 1,
,"CN(C)C1CCC(c2c[nH]c3cccc(F)c23)C1 (stereo not shown) [Compound 37, 3-(4-Fluoro-1H-indol-3-yl)-cyclopentyl-dimethyl-amine]",10 to 100,
,"CN(C)C1CCC(c2c[nH]c3cc(F)ccc23)C1 (stereo not shown) [Compound 42, 3-(6-Fluoro-1H-indol-3-yl)-cyclopentyl-dimethyl-amine]",1 to 10,
,"CN(C)C1CCC(c2c[nH]c3ccc(Cl)cc23)C1 (stereo not shown) [Compound 39, 3-(5-Chloro-1H-indol-3-yl)-cyclopentyl-dimethyl-amine]",1 to 10,
,"CN(C)C1CCC(c2c[nH]c3ccc(I)cc23)C1 (stereo not shown) [Compound 41, 3-(5-Iodo-1H-indol-3-yl)-cyclopentyl-dimethyl-amine]",10 to 100,

Structure (SMILES),Ki [2] [nM],"Ki [1, 3] [nM]",Ki [1] [nM]
"CN(C)[C@H]1CC[C@H](c2c[nH]c3ccc(C#N)cc23)C1 [Compound 49, (1S,3S)-3-(3-dimethylaminocyclopentyl)-1H-indole-5-carbonitrile]",> 1000,< 1,
"CNC1CCC(c2cn(C)c3ccc(C#N)cc23)C1 (stereo not shown) [Compound 17, 1-Methyl-3-(3-methylamino-cyclopentyl)-1H-indole-5-carbonitrile]",> 1000,,1 to 10
"CCCNC1CCC(c2c[nH]c3ccc(C#N)cc23)C1 (stereo not shown) [Compound 16, 3-(3-Propylamino-cyclopentyl)-1H-indole-5-carbonitrile]",> 1000,,< 1
CN(C)C1CCC(c2c[nH]c3ccc(F)cc23)C1 (stereo not shown) [Compound 33],> 1000,< 1,
"CCN(CC)C1CCC(c2c[nH]c3ccc(F)cc23)C1 (stereo not shown) [Compound 35, Diethyl-[3-(5-fluoro-1H-indol-3-yl)-cyclopentyl]-amine]",> 1000,,5
"CN(C)[C@@H]1CC[C@@H](c2c[nH]c3ccc(C#N)cc23)C1 [Compound 51, (1R,3R)-3-(3-dimethylaminocyclopentyl)-1H-indole-5-carbonitrile]",> 1000,< 1,
"CN(C)[C@@H]1CC[C@H](c2c[nH]c3ccc(F)cc23)C1 [Compound 53, (1R,3S)-3-(5-fluoro-1H-indol-3-yl)-cyclopentyl-dimethylamine]",> 1000,< 1,
"N#Cc1ccc2[nH]cc(C3CCC(N4CCCC4)C3)c2c1 (stereo not shown) [Compound 6, 3-(3-Pyrrolidin-1-yl-cyclopentyl)-1H-indole-5-carbonitrile]",> 1000,,1 to 10
"CCN(CC)C1CCC(c2c[nH]c3ccc(C#N)cc23)C1 (stereo not shown) [Compound 5, 3-(3-Diethylamino-cyclopentyl)-1H-indole-5-carbonitrile]",> 1000,1 to 10,
"CN(C)[C@H]1CC[C@@H](c2c[nH]c3ccc(C#N)cc23)C1 [Compound 50, (1R,3S)-3-(3-dimethylaminocyclopentyl)-1H-indole-5-carbonitrile]",> 1000,< 1,
"CCCNC1CCC(c2cn(C)c3ccc(C#N)cc23)C1 (stereo not shown) [Compound 29, 1-Methyl-3-(3-propylamino-cyclopentyl)-1H-indole-5-carbonitrile]",> 1000,,< 1

# From US7049314B2, “Cyclopentyl indole derivatives” (Bristol-Myers Squibb Company, priority 2002, dated 2006)
